These results are taken from patent US10758534B2 (Vertex Pharmaceuticals Incorporated, priority 2014, dated 2020).

Each structure is given as a SMILES string.

T1 sequence (P13569 with tags, fused parts or gaps DEL508-508): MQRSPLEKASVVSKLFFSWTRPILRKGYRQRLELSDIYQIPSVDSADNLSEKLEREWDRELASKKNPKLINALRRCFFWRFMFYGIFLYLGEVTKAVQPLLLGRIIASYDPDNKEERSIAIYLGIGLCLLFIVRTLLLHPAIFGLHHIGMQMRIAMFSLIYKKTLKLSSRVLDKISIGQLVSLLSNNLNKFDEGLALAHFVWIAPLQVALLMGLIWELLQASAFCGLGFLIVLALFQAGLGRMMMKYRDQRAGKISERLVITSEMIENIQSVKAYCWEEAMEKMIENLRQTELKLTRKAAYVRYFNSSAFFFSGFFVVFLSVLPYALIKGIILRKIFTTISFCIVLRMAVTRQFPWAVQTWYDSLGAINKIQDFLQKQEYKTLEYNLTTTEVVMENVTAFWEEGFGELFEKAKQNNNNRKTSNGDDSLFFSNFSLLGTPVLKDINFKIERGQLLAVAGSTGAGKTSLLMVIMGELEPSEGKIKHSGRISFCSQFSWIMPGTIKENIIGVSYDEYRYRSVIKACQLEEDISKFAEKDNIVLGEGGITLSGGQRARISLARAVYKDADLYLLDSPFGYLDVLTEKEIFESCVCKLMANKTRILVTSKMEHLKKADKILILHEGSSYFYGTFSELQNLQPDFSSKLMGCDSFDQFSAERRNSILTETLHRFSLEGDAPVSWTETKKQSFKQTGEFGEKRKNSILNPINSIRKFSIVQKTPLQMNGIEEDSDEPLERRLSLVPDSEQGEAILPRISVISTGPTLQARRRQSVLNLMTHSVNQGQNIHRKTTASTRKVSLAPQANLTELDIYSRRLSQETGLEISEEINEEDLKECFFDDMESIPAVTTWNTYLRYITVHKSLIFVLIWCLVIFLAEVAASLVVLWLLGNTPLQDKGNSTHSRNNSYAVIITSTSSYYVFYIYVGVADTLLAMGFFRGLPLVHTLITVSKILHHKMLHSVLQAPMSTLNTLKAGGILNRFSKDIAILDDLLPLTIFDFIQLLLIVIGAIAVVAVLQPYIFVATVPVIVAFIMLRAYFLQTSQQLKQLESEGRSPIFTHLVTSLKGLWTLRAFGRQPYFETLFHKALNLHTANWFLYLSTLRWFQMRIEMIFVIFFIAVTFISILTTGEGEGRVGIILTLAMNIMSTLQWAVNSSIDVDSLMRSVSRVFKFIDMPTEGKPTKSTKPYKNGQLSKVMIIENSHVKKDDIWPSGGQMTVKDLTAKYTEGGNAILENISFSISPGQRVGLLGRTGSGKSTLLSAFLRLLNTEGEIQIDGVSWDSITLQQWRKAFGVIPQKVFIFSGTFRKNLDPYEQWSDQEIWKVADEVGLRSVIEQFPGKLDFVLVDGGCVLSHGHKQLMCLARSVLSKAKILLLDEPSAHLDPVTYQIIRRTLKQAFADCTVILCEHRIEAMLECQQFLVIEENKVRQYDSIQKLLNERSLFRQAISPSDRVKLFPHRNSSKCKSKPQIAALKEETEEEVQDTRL

The first experiment addresses T1, F508del (Homo sapiens, UniProt P13569, DEL508-508).
T1 construct: expressed in transfected cells
The experiment can be described thus: Protocol 2: FRET membrane potential optical assay (VIPR), identification of correction compounds. In kind it is cell-based. Conditions: F508del CFTR modulator activity; compounds of Table 1; read-out: EC30. In outline:
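Correction of the F508del trafficking defect is scored as forskolin (10 μM)/genistein (20 μM)-stimulated Cl^− efflux in NIH3T3 mouse fibroblasts after a 16 hr, 37° C. compound exposure. Depolarization was followed optically using voltage-sensing FRET dyes.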
What is called EC30 is the concentration at which the effect reaches the 30% level. `COc1cc(F)c(-c2ccc(C(=O)NS(=O)(=O)c3cccnc3N)c(N3C[C@@H](C)CC3(C)C)n2)cc1F` [Compound 2388, N-[(2-amino-3-pyridyl)sulfonyl]-6-(2,5-difluoro-4-methoxy-phenyl)-2-[(4S)-2,2,4-trimethylpyrrolidin-1-yl]pyridine-3-carboxamide]: the EC30 was < 3000 nM. On the same count and under the same terms, to `COc1ccccc1-c1ccc(C(=O)NS(=O)(=O)N2CC[C@H](N)C2)c(N2C[C@@H](C)CC2(C)C)n1` [Compound 2666, N-[(3S)-3-aminopyrrolidin-1-yl]sulfonyl-6-(2-methoxyphenyl)-2-[(4S)-2,2,4-trimethylpyrrolidin-1-yl]pyridine-3-carboxamide] belongs 3000 to 10000 nM. On to `CC1CN(c2ncccc2C(=O)NS(=O)(=O)c2cccc(NCCc3ccc(Cl)cc3)n2)C(C)(C)C1` (centres unmarked) [Compound 2262, N—[[6-[2-(4-chlorophenyl)ethylamino]-2-pyridyl]sulfonyl]-2-(2,2,4-trimethylpyrrolidin-1-yl)pyridine-3-carboxamide], for which the EC30 was < 3000 nM. The same measure, in the same setting: to `COc1ccc(-c2ccc(C(=O)NS(=O)(=O)c3cccnc3N)c(N3C[C@@H](C)CC3(C)C)n2)cc1OC` [Compound 2664, N-[(2-amino-3-pyridyl)sulfonyl]-6-(3,4-dimethoxyphenyl)-2-[(4S)-2,2,4-trimethylpyrrolidin-1-yl]pyridine-3-carboxamide] belongs < 3000 nM; to `CC(C)Oc1cnn(-c2ccc(C(=O)NS(=O)(=O)c3cccc(N)n3)c(N3C[C@@H](C)CC3(C)C)n2)c1` [Compound 2658, N-[(6-amino-2-pyridyl)sulfonyl]-6-(4-isopropoxypyrazol-1-yl)-2-[(4S)-2,2,4-trimethylpyrrolidin-1-yl]pyridine-3-carboxamide], 3000 to 10000 nM. For the compound `C[C@@H]1CN(c2ncccc2C(=O)NS(=O)(=O)N2CCN(CCCc3ccc(Cl)cc3)CC2)C(C)(C)C1` [Compound 2141, N-[4-[3-(4-chlorophenyl)propyl]piperazin-1-yl]sulfonyl-2-[(4S)-2,2,4-trimethylpyrrolidin-1-yl]pyridine-3-carboxamide], the 30% effect concentration (EC30) was < 3000 nM. As to `C[C@@H]1CN(c2nc(-c3ccc(N(C)C)nc3)ccc2C(=O)NS(=O)(=O)c2cccnc2N)C(C)(C)C1` [Compound 2319, N-[(2-amino-3-pyridyl)sulfonyl]-6-[6-(dimethylamino)-3-pyridyl]-2-[(4S)-2,2,4-trimethylpyrrolidin-1-yl]pyridine-3-carboxamide], the EC30 lay within 3000 to 10000 nM.

As to `Cc1ccc(-c2nc(-c3cc(F)cc(OCC(C)C)c3)ccc2C(=O)NS(=O)(=O)N2CC[C@@H](N)C2)cc1` [Compound 2276, N-[(3R)-3-aminopyrrolidin-1-yl]sulfonyl-6-(3-fluoro-5-isobutoxy-phenyl)-2-(p-tolyl)pyridine-3-carboxamide], the EC30 is < 3000 nM. Same read-out and setting: to `Cc1cc(-c2ccc(C(=O)NS(=O)(=O)c3cccc(N)n3)c(N3C[C@@H](C)CC3(C)C)n2)cnc1N(C)CC(C)C` [Compound 2279, N-[(6-amino-2-pyridyl)sulfonyl]-6-[6-[isobutyl(methyl)amino]-5-methyl-3-pyridyl]-2-[(4S)-2,2,4-trimethylpyrrolidin-1-yl]pyridine-3-carboxamide] belongs < 3000 nM. Consider `CC1CN(c2ncccc2C(=O)NS(=O)(=O)c2cccc(NCc3ccco3)n2)C(C)(C)C1` (centres unmarked) [Compound 2597, N—[[6-(2-furylmethylamino)-2-pyridyl]sulfonyl]-2-(2,2,4-trimethylpyrrolidin-1-yl)pyridine-3-carboxamide], for which the EC30 is 3000 to 10000 nM. Same read-out and setting: under `CCOc1ccc(F)cc1-c1ccc(C(=O)NS(=O)(=O)c2ccc[nH]c2=O)c(N2C[C@@H](C)CC2(C)C)n1` [Compound 2051, 6-(2-ethoxy-5-fluoro-phenyl)-N-[(2-oxo-1H-pyridin-3-yl)sulfonyl]-2-[(4S)-2,2,4-trimethylpyrrolidin-1-yl]pyridine-3-carboxamide] stands < 3000 nM; under `CC(C)COc1ccn(-c2ccc(C(=O)NS(=O)(=O)c3cccnc3N)c(N3CC(C)CC34CCC4)n2)n1` (single isomer, unassigned) [Compound 2194, N-[(2-amino-3-pyridyl)sulfonyl]-6-(3-isobutoxypyrazol-1-yl)-2-(6-methyl-8-azaspiro[3.4]octan-8-yl)pyridine-3-carboxamide], < 3000 nM. Still for that read-out and setting: under `Cc1cccc(-c2ccc(C(=O)NS(=O)(=O)c3ccc[nH]c3=O)c(N3C[C@@H](C)CC3(C)C)n2)c1O` [Compound 2300, 6-(2-hydroxy-3-methyl-phenyl)-N-[(2-oxo-1H-pyridin-3-yl)sulfonyl]-2-[(4S)-2,2,4-trimethylpyrrolidin-1-yl]pyridine-3-carboxamide] stands 3000 to 10000 nM.

The same experiment, now with this note: Table 3; compounds of Table 1 as modulators of CFTR activity; protocol not stated.
As for `CC(C)COc1cc(F)cc(-c2ccc(C(=O)NS(=O)(=O)c3cccc(N)n3)c(N3CC(C)CC3C)n2)c1` (centres unmarked) [Compound 587, N-[(6-amino-2-pyridyl)sulfonyl]-2-(2,4-dimethylpyrrolidin-1-yl)-6-(3-fluoro-5-isobutoxy-phenyl)pyridine-3-carboxamide], the EC30 result is listed as “+++ (“+++” means <3 uM)”. The same measure, in the same setting: under `CC(C)COc1cc(F)cc(-c2ccc(C(=O)NS(=O)(=O)c3ccn[nH]3)c(Oc3ccccc3)n2)c1` [Compound 679, 6-(3-fluoro-5-isobutoxy-phenyl)-2-phenoxy-N-(1H-pyrazol-5-ylsulfonyl)pyridine-3-carboxamide] stands “+++ (“+++” means <3 uM)”; under `Cc1cc(C)c(Cc2nn(C(C)(C)C)cc2C(=O)NS(=O)(=O)c2ccccc2)c(C)c1` [Compound 63, N-(benzenesulfonyl)-1-tert-butyl-3-[(2,4,6-trimethylphenyl)methyl]pyrazole-4-carboxamide], “+++ (“+++” means <3 uM)”; under `C#CC1CCCN(c2nc(-c3cc(F)cc(OCC(C)C)c3)ccc2C(=O)NS(=O)(=O)c2ccn[nH]2)C1` (centres unmarked) [Compound 431, 2-(3-ethynyl-1-piperidyl)-6-(3-fluoro-5-isobutoxy-phenyl)-N-(1H-pyrazol-5-ylsulfonyl)pyridine-3-carboxamide], “++ (“++” means between 3 uM and 10 uM)”. The same measure, in the same setting: under `CCOc1ccc(C(=O)NS(=O)(=O)c2cccc(N)n2)c(Oc2c(C)cc(C)cc2C)n1` [Compound 637, N-[(6-amino-2-pyridyl)sulfonyl]-6-ethoxy-2-(2,4,6-trimethylphenoxy)pyridine-3-carboxamide] stands “++ (“++” means between 3 uM and 10 uM)”; under `CC(C)COc1cc(F)cc(-c2ccc(C(=O)NS(=O)(=O)c3cccc(N)n3)c(OC3CCC(C)CC3)n2)c1` (centres unmarked) [Compound 438, N-[(6-amino-2-pyridyl)sulfonyl]-6-(3-fluoro-5-isobutoxy-phenyl)-2-(4-methylcyclohexoxy)pyridine-3-carboxamide], “+++ (“+++” means <3 uM)”; under `COc1ncccc1S(=O)(=O)NC(=O)c1cc2c(nc1Oc1c(C)cc(C)cc1C)C(C)(C)CCC2` [Compound 423, N-[(2-methoxy-3-pyridyl)sulfonyl]-8,8-dimethyl-2-(2,4,6-trimethylphenoxy)-6,7-dihydro-5H-quinoline-3-carboxamide], “+++ (“+++” means <3 uM)”.

`Cc1cc(C)c(Cn2nc(C(C)(C)C)cc2C(=O)NS(=O)(=O)c2cccc(CO)c2)c(C)c1` [Compound 39, 5-tert-butyl-N-[3-(hydroxymethyl)phenyl]sulfonyl-2-[(2,4,6-trimethylphenyl)methyl]pyrazole-3-carboxamide]: the EC30 result is “++ (“++” means between 3 uM and 10 uM)”. Consider `CC1CN(c2nc(-c3ccc(C(C)C)cc3)ccc2C(=O)NS(=O)(=O)c2cccc(N)n2)C(C)(C)C1` (centres unmarked) [Compound 693, N-[(6-amino-2-pyridyl)sulfonyl]-6-(4-isopropylphenyl)-2-(2,2,4-trimethylpyrrolidin-1-yl)pyridine-3-carboxamide], for which the EC30 entry is reported as “+++ (“+++” means <3 uM)”. On the same count and under the same terms, under `CC(C)COc1cccc(-c2ccc(C(=O)NS(=O)(=O)c3ccc[nH]c3=O)c(N3[C@H](C)CC[C@@H]3C)n2)c1` [Compound 511, 2-[(2S,5R)-2,5-dimethylpyrrolidin-1-yl]-6-(3-isobutoxyphenyl)-N-[(2-oxo-1H-pyridin-3-yl)sulfonyl]pyridine-3-carboxamide] stands “+++ (“+++” means <3 uM)”. Same read-out and setting: under `Cc1cc(C)c(CN2Cc3c(C(C)C)cccc3C2C(=O)NS(=O)(=O)c2ccc[nH]c2=O)c(C)c1` (centres unmarked) [Compound 103, 4-isopropyl-N-[(2-oxo-1H-pyridin-3-yl)sulfonyl]-2-[(2,4,6-trimethylphenyl)methyl]isoindoline-1-carboxamide] stands “+++ (“+++” means <3 uM)”; under `CC(C)(C)c1ccc(C(=O)NS(=O)(=O)c2cccc(N)c2)c(-c2ccc(Cl)cc2)n1` [Compound 223, N-(3-aminophenyl)sulfonyl-6-tert-butyl-2-(4-chlorophenyl)pyridine-3-carboxamide], “+++ (“+++” means <3 uM)”; under `CCOc1ccc(-c2cc(C(=O)NS(=O)(=O)c3ccccc3)n(Cc3c(C)cccc3C)n2)cc1` [Compound 29, N-(benzenesulfonyl)-2-[(2,6-dimethylphenyl)methyl]-5-(4-ethoxyphenyl)pyrazole-3-carboxamide], “+++ (“+++” means <3 uM)”. Turning to `CC1CCN(c2nc(-c3ccc(OC(C)C)nc3)ccc2C(=O)NS(=O)(=O)c2cccc(N)n2)CC1` [Compound 736, N-[(6-amino-2-pyridyl)sulfonyl]-6-(6-isopropoxy-3-pyridyl)-2-(4-methyl-1-piperidyl)pyridine-3-carboxamide], the EC30 result is reported as “+++ (“+++” means <3 uM)”. With `Cc1cc(C)c(Cn2c(C(=O)NS(=O)(=O)c3ccccc3)cc3c(F)cccc32)c(C)c1` [Compound 87, N-(benzenesulfonyl)-4-fluoro-1-[(2,4,6-trimethylphenyl)methyl]indole-2-carboxamide], the EC30 result is “+++ (“+++” means <3 uM)”.

Take `Cc1cc(C)c(Cn2nc(C(C)(C)C)cc2C(=O)NS(=O)(=O)c2ccc(O)cc2)c(C)c1` [Compound 269, 5-tert-butyl-N-(4-hydroxyphenyl)sulfonyl-2-[(2,4,6-trimethylphenyl)methyl]pyrazole-3-carboxamide]: the EC30 result was “+++ (“+++” means <3 uM)”.
